Consider one compound from paper PMC3371188 (Applied Microbiology and Biotechnology, 2012).

This assay deals with AldO (Streptomyces coelicolor, UniProt Q9ZBU1). Description: HRP-coupled H2O2 assay, thermostability and temperature optimum. The class given is biochemical. To be noted: 10 mM xylitol; 50 mM potassium phosphate pH 7.5.
Sequence of AldO (Q9ZBU1 whole entry): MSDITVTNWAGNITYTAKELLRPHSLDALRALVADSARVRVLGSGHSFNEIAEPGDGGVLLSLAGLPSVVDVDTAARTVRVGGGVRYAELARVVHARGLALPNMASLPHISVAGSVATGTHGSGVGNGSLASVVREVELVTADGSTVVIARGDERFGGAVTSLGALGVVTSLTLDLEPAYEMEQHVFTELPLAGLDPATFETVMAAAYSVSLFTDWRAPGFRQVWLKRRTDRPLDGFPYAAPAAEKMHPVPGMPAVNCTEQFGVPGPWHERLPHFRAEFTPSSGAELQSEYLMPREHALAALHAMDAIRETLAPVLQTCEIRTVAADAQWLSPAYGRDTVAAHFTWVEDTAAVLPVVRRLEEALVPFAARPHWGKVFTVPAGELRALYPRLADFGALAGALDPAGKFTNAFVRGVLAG

Consider `OC[C@@H](O)[C@H](O)[C@@H](O)CO` [xylitol], for which the “HRP-coupled H2O2 assay, thermostability and temperature optimum” value is on record as “Oxidase activity with xylitol as substrate was measured after enzyme solutions had been incubated”.
